In the NIST ThermoML archive (doi:10.1021/je060271a):
Where “and” joins values, the source holds several entries; their conditions need not be identical. Equal values may be shown once.

Settings: 323.15 K, Liquid, Vibrating tube method

CCCCCCCC(=O)OCC(COC(=O)CCCCCCC)(COC(=O)CCCCCCC)COC(=O)CCCCCCC [pentaerythritol tetraoctanoate]
Settings	mass density
3786.1 kPa	943.3 kg/m3
3800.8 kPa	943.3 kg/m3
3818.1 kPa	943.3 kg/m3
3832.3 kPa	943.3 kg/m3
3846.9 kPa	943.3 kg/m3
3894.9 kPa	943.3 kg/m3
4078 kPa	943.4 kg/m3
4095.3 kPa	943.5 kg/m3
4116.3 kPa	943.5 kg/m3
4133.4 kPa	943.5 kg/m3
4151.5 kPa	943.4 kg/m3
4169.5 kPa	943.5 kg/m3
4190.6 kPa	943.5 kg/m3
4208.3 kPa	943.5 kg/m3
4239.4 kPa	943.7 kg/m3
4240.5 kPa	943.6 kg/m3
4244.3 kPa	943.6 kg/m3
4247.1 kPa	943.6 kg/m3
4247.4 kPa	943.5 kg/m3
4247.6 kPa	943.5 kg/m3
4248.6 kPa	943.5 kg/m3
4249.3 kPa	943.5 kg/m3 and 943.6 kg/m3
4250.7 kPa	943.7 kg/m3
4258.1 kPa	943.6 kg/m3
4267.5 kPa	943.7 kg/m3
4277.9 kPa	943.5 kg/m3
4287.4 kPa	943.5 kg/m3
4298 kPa	943.6 kg/m3
4315.8 kPa	943.6 kg/m3
4334.7 kPa	943.5 kg/m3
4353.7 kPa	943.6 kg/m3
4376.6 kPa	943.5 kg/m3
4396.7 kPa	943.6 kg/m3
4416.4 kPa	943.8 kg/m3
4436.5 kPa	943.7 kg/m3
4522.7 kPa	943.7 kg/m3
4548.7 kPa	943.7 kg/m3
4571 kPa	943.8 kg/m3
4604.4 kPa	943.8 kg/m3
4618.8 kPa	943.7 kg/m3
4647.7 kPa	943.8 kg/m3
4665.2 kPa	943.8 kg/m3
4679.7 kPa	943.8 kg/m3
4709.7 kPa	943.8 kg/m3
4727.3 kPa	943.9 kg/m3
4891.1 kPa	943.9 kg/m3
4907.3 kPa	944 kg/m3
4923.3 kPa	944 kg/m3
4942.8 kPa	944.1 kg/m3
4959.8 kPa	943.9 kg/m3
4976.6 kPa	944 kg/m3
4996.1 kPa	944 kg/m3
5013.6 kPa	944 kg/m3
5030.7 kPa	944 kg/m3
5047.7 kPa	944.1 kg/m3
5068.6 kPa	944.1 kg/m3
5086.9 kPa	944.1 kg/m3
5104.6 kPa	944.2 kg/m3
5218.8 kPa	944.1 kg/m3
5237.3 kPa	944.2 kg/m3
5255.9 kPa	944.1 kg/m3
5277.4 kPa	944 kg/m3
5296.3 kPa	944.3 kg/m3
5316.3 kPa	944.2 kg/m3
5355 kPa	944.3 kg/m3
5378.7 kPa	944.3 kg/m3
5681.4 kPa	944.5 kg/m3
5729.8 kPa	944.6 kg/m3
5752.1 kPa	944.5 kg/m3
5847.4 kPa	944.5 kg/m3
5898.9 kPa	944.7 kg/m3
5922.8 kPa	944.6 kg/m3
5946.5 kPa	944.7 kg/m3
5970.5 kPa	944.6 kg/m3
5999.4 kPa	944.7 kg/m3
6024.1 kPa	944.7 kg/m3
6049 kPa	944.6 kg/m3
6104.5 kPa	944.9 kg/m3
6129.2 kPa	944.8 kg/m3
6154.4 kPa	944.8 kg/m3
6185.7 kPa	944.9 kg/m3
6211.6 kPa	944.7 kg/m3
6413.9 kPa	945 kg/m3
6442.7 kPa	945.1 kg/m3
6473 kPa	945 kg/m3
6509.3 kPa	944.9 kg/m3
6534.3 kPa	945 kg/m3
6561.1 kPa	945 kg/m3
6584.4 kPa	945 kg/m3
6606.7 kPa	945 kg/m3
6623 kPa	945.2 kg/m3
6640.9 kPa	945.1 kg/m3
6655.8 kPa	945.2 kg/m3
6670.8 kPa	945.1 kg/m3
6686 kPa	945.1 kg/m3
6704.2 kPa	945 kg/m3
6719.4 kPa	945.2 kg/m3
6735.1 kPa	945.2 kg/m3
6749.8 kPa	945.1 kg/m3
6768.8 kPa	945.2 kg/m3
6784.3 kPa	945.2 kg/m3
6800.4 kPa	945.2 kg/m3
6817 kPa	945.2 kg/m3
6835.8 kPa	945.3 kg/m3
6851.9 kPa	945.3 kg/m3
6867.4 kPa	945.1 kg/m3
6883.1 kPa	945.3 kg/m3
6902.5 kPa	945.3 kg/m3
6918.5 kPa	945.3 kg/m3
6935.1 kPa	945.2 kg/m3
6954.5 kPa	945.3 kg/m3
6971.2 kPa	945.4 kg/m3
6987.8 kPa	945.3 kg/m3
7004.7 kPa	945.4 kg/m3
7025.5 kPa	945.3 kg/m3
7043.2 kPa	945.5 kg/m3
7059.8 kPa	945.4 kg/m3
7076.5 kPa	945.4 kg/m3
7096.9 kPa	945.4 kg/m3
7113.8 kPa	945.4 kg/m3
7131.3 kPa	945.5 kg/m3
7148.4 kPa	945.5 kg/m3
7169.6 kPa	945.5 kg/m3
7187.1 kPa	945.5 kg/m3
7204 kPa	945.6 kg/m3
7225.1 kPa	945.5 kg/m3
7243.2 kPa	945.4 kg/m3
7262.9 kPa	945.5 kg/m3
7281.3 kPa	945.5 kg/m3
7299.6 kPa	945.5 kg/m3
7320.9 kPa	945.6 kg/m3
7338.5 kPa	945.7 kg/m3
7357.3 kPa	945.6 kg/m3
7379.6 kPa	945.5 kg/m3
7397.7 kPa	945.7 kg/m3
7416.4 kPa	945.6 kg/m3
7435.3 kPa	945.6 kg/m3
7457.8 kPa	945.7 kg/m3
7476.9 kPa	945.7 kg/m3
7496.1 kPa	945.6 kg/m3
7515.6 kPa	945.7 kg/m3
7538.6 kPa	945.7 kg/m3
7558.1 kPa	945.7 kg/m3
7577.6 kPa	945.6 kg/m3
7601.3 kPa	945.7 kg/m3
7621.1 kPa	945.8 kg/m3
7640.6 kPa	945.7 kg/m3
7660.5 kPa	945.8 kg/m3
